In US11274328B2, “Methods for producing rebaudioside D and rebaudioside M and compositions thereof” (SICHUAN INGIA BIOSYNTHETIC CO., LTD., priority 2018, dated 2022):

Tests used:
[1] = relative to sucrose of the same weight; cited from earlier work
[2] = Sensory analysis (triangle test), taste comparison with sucrose as control sample; assay type: in vivo; settings: vs sucrose; for Difference (number of answers) / No difference (number of answers): aqueous solutions of same sweetness
Description: The sweetener composition shall be tested, evaluated and analyzed by referring to Sensory Analysis Methodology (Triangular Test) (BS ISO 4120) and Sensory Analysis Method (Triangle Test) (GB/T 12311). The specific analysis method is as follows:
Method and principle: A group of three samples shall be provided to evaluators, two of which are identical and the evaluators shall select a single sample.
Preparation of test samples: Enough samples A and B shall be provided, and every three test samples are a group.
Sample groups with equal number of samples shall be prepared from laboratory samples in the following six combinations: ABB, AAB, ABA, BAA, BBA and BAB.
Test requirements: Evaluators shall not make conclusion as to the nature of samples from sample supply methods. All test sample groups shall be prepared in the same way [the same equipment, the same container, the same quantity of products and the same arrangement (triangle, straight line, etc.)]. In any sample group, the temperature of test samples shall be the same, and if possible, the temperature of all other sample groups in the test series provided shall also be the same. Test sample containers shall be numbered generally with three random digits. The number shall be different for each test.
Test techniques: Evaluators shall be notified of the test purpose to the extent that their conclusions are not biased. Groups of prepared samples shall be randomly assigned to the evaluators, then the evaluators shall check test samples of each group in the specified order, and the order shall be the same in the same series of tests. While evaluating three test samples in the same group, the evaluators shall have the opportunity to retest each sample. The test leader can tell the evaluators the quantity and volume of samples provided when necessary. When the number of evaluators is less than a multiple of 6, the following two approaches can be taken. (a) Discard redundant sample groups, or (b) Provide each evaluator with six groups of samples for retest.
When the evaluator cannot identify the difference, the answer “no difference” is allowed.
The number of “difference” or “no difference” answers shall be counted. When the number of evaluators (n) is greater than 100, the minimum number of answers needed to determine the significant difference in the triangle test at different significance levels (X) is calculated according to the following formula, and the nearest integer value shall be taken. Where, α is the significance level, which is an expected value.
The above evaluation and analysis methods were applied to analyze different compositions, with sucrose as the control sample. Samples and the control sample were prepared respectively into aqueous solutions with the same sweetness and then tested according to the requirements of the above-mentioned sensory analysis method. […]
Rebaudioside A (>97%), DM 3:1 mixture, DM 3:1 mixture-rebaudioside A (1:9, w/w), DM 3:1 mixture-rebaudioside A (9:1, w/w), DM 3:1 mixture-rebaudioside A (3:7, w/w) were analyzed according to the evaluation and analysis methods described above, with sucrose as the control sample. Samples and the control sample were prepared respectively into aqueous solutions with the same sweetness and then tested according to the requirements of the above-mentioned sensory analysis method. […]
Rebaudioside A (>97%), DM 3:1 mixture, DM 3:1 mixture-rebaudioside A (3:7, w/w), DM 3:1 mixture-rebaudioside A (7:3, w/w), DM 3:1 mixture-rebaudioside A (4:6, w/w) were analyzed according to the evaluation and analysis methods described above, with sucrose as the control sample. Samples and the control sample were prepared respectively into aqueous solutions with the same sweetness and then tested according to the requirements of the above-mentioned sensory analysis method. Effective evaluators are 125 primary evaluators, who were allowed to answer “no difference”. […]

[3] = Heat and pH stability of reb M; assay type: physicochemical
[4] = Solubility of reb M in water and solvents; assay type: physicochemical
[5] = Evaluation I, 135 primary evaluators
[6] = Evaluation II, 135 primary evaluators
[7] = Evaluation III, 125 primary evaluators
[8] = Evaluation IV, 128 primary evaluators

13-[(2O-β-D-glucopyranosyl-3-O-β-D-glucopyranosyl-β-D-glucopyranosyl)oxy]kaur-16-en18-oic acid, 2-O-β-D-glucopyranosyl-3-O-β-D-glucopyranosyl-β-D-glucopyranosyl ester [RD]
Sweetness Multiple (1 for sucrose of the same weight) [1]: 150-250
Difference (number of answers) [2, 5]: 79
No difference (number of answers) [2, 5]: 56
Conclusion (taste compared with sucrose) [2, 5]: Similar

C=C1C[C@@]23CC[C@H]4[C@@](C)(CCC[C@@]4(C)C(=O)O[C@@H]4O[C@H](CO)[C@@H](O)[C@H](O)[C@H]4O)[C@@H]2CC[C@]1(O[C@@H]1O[C@H](CO)[C@@H](O)[C@H](O[C@@H]2O[C@H](CO)[C@@H](O)[C@H](O)[C@H]2O)[C@H]1O[C@@H]1O[C@H](CO)[C@@H](O)[C@H](O)[C@H]1O)C3 [RA, rebaudioside A]
Sweetness Multiple (1 for sucrose of the same weight) [1]: 350-450
Difference (number of answers) [2, 6]: 85
No difference (number of answers) [2, 6]: 50
Conclusion (taste compared with sucrose) [2, 6]: Dissimilar
Difference (number of answers) [2, 7]: 78
No difference (number of answers) [2, 7]: 47
Conclusion (taste compared with sucrose) [2, 7]: Dissimilar
Difference (number of answers) [2, 8]: 82
No difference (number of answers) [2, 8]: 46
Conclusion (taste compared with sucrose) [2, 8]: Dissimilar

C=C1C[C@@]23CC[C@H]4[C@@](C)(CCC[C@@]4(C)C(=O)O[C@@H]4O[C@H](CO)[C@@H](O)[C@H](O[C@@H]5O[C@H](CO)[C@@H](O)[C@H](O)[C@H]5O)[C@H]4O[C@@H]4O[C@H](CO)[C@@H](O)[C@H](O)[C@H]4O)[C@@H]2CC[C@]1(O[C@@H]1O[C@H](CO)[C@@H](O)[C@H](O[C@@H]2O[C@H](CO)[C@@H](O)[C@H](O)[C@H]2O)[C@H]1O[C@@H]1O[C@H](CO)[C@@H](O)[C@H](O)[C@H]1O)C3 [RM]
Sweetness Multiple (1 for sucrose of the same weight) [1]: 200-350
Difference (number of answers) [2, 5]: 97
No difference (number of answers) [2, 5]: 38
Conclusion (taste compared with sucrose) [2, 5]: Dissimilar
heat and pH stability [3]: heat and pH-stable
solubility in organic solvents ([4]; acetone, benzene, chloroform, and ether): insoluble
solubility in diluted alcohols ([4]; diluted solutions of methanol, ethanol, n-propanol, and isopropanol): soluble
solubility in water ([4]; water, increases with an increase in temperature): around 0.3%

C=C1C[C@@]23CC[C@H]4[C@@](C)(CCC[C@@]4(C)C(=O)O[C@@H]4O[C@H](CO)[C@@H](O)[C@H](O)[C@H]4O)[C@@H]2CC[C@]1(O[C@@H]1O[C@H](CO)[C@@H](O)[C@H](O)[C@H]1O[C@@H]1O[C@H](CO)[C@@H](O)[C@H](O)[C@H]1O)C3 [STv, stevioside, reference compound]
Sweetness Multiple (1 for sucrose of the same weight) [1]: 270-300
